Data on seven molecules can be found in patent publication US11944600B2, “Use of cannabinoids in the treatment of a neurodegenerative disease or disorder” (priority 2017, dated 2024).

For experiment [1], the system named is experimental model of ALS. The note with it: prior art statement; cited from earlier work.
The subject of experiment [2] is TDP-43 transgenic mice. Kind of experiment: Nissl-stained spinal motor neurons in TDP-43 transgenic mouse model of ALS. The format is in vivo. Conditions: TDP-43 transgenic male mice, 10 mg/kg/day i.p. from 60 to 90 days of age, vs vehicle (p<0.05), FIG. 1. As for the experimental part: (§1) A transgenic mouse model of ALS, TDP-43, was used to determine the effects of the cannabinoids in treatment of symptoms of ALS.
(§2) The TDP-43 transgenic and wild-type mice were subjected to genotyping to identify the presence of mutant TDP-43 gene. These mice were used for a chronic i.p. treatment (from 60 days of age up to the age of 90 days) with cannabinoid or vehicle.
(§3) All studies were conducted in male mice (n=6-8 subjects in each experimental group).
(§4) The neuroprotective effects of 2 different phytocannabinoids (CBDV and CBDA) were investigated. The cannabinoids were administered at a dose of 10 mg/kg/day.
(§5) Animals were euthanized at the end of the treatment period and their spinal cords collected for biochemical and histopathological analyses.
(§6) Data were assessed using one-way (immunostaining data) or two-way (rotarod data) ANOVA followed by an appropriate post-hoc test (Student Newman-Keuls for immunostaining data, and Bonferroni for behavioural data) significance was reported at p≤0.05. Data shown in the figures represent “p<0.01, ***p<0.001.

The test system of experiment [3] is TDP-43 transgenic mice. Kind of experiment: GFAP immunostaining of spinal cord astrocytes in TDP-43 transgenic mice. In kind it is in vivo, mouse. Conditions: TDP-43 transgenic male mice, 10 mg/kg/day i.p. from 60 to 90 days of age, FIG. 2. As for the experimental part:
as §1, §2, §3, §4, §5, §6
The reduction of spinal motor neurons in TDP-43 transgenic mice was associated with an elevation in the number of astrocytes labelled with Glial fibrillary acidic protein (GFAP) immunostaining, in particular activated astrocytes identified by analysis of their morphological characteristics (e.g. increased cell shape and size, reduction in the length of processes).

The test system of experiment [4] is TDP-43 transgenic mice. Briefly: Weight gain in TDP-43 transgenic mice. The format is in vivo, mouse. Conditions: TDP-43 transgenic male mice, 10 mg/kg/day i.p., FIG. 6A/6B. As for the experimental part: as §1, §2, §3, §4
(§7) Animals were recorded for neurological decline by testing rotarod performance and observing limb clasping during the whole treatment period. The weight of the animals was also recorded during the treatment period.
The weight gain of animals was also monitored, this is a variable which is frequently used to monitor disease progression in animal models of ALS.

Experiment [5] relates to TDP-43 transgenic mice. Briefly: lba-1 immunostaining of spinal cord microglial cells in TDP-43 transgenic mice. The format is in vivo, mouse. Conditions: TDP-43 transgenic male mice, 10 mg/kg/day i.p. from 60 to 90 days of age, FIG. 3. The procedure: as §1, §2, §3, §4, §5
Data were assessed using one-way (immunostaining data) or two-way (rotarod data) ANOVA followed by an appropriate post-hoc test (Student Newman-Keuls for immunostaining data, and Bonferroni for behavioural data) significance was reported at p≤0.05. […]
The number of microglial cells in the spinal cord was quantified using lba-1 immunostaining, and again differentiating resting and activated cells through the analysis of their morphological characteristics (e.g. cell shape and size, type of processes). […] This was also seen when the ratio between cell body area and cell process length was calculated.

Experiment [6] deals with TDP-43 transgenic mice. Kind of experiment: Rotarod test in TDP-43 transgenic mice. The format is in vivo, mouse. The note with it: 10 mg/kg/day i.p.; for motor performance on rotarod compared to wild type: vs wild type. As for the experimental part:
as §1, §2, §3, §4, §7, §6
The rotarod test was utilised to quantify the muscle weakness characteristic of TDP-43 transgenic mice.

The next experiment deals with ALS patients. Conditions: in some patients; cited from earlier work.
For experiment [7], the system named is mSOD1-transgenic (G93A) mice. Briefly: Rotarod performance in SOD-1 transgenic mice. In kind it is in vivo, mouse. Conditions: SOD-1 transgenic male mice, treated from 10 to 21 weeks of age; BDS 10 mg/kg i.p., olesoxime 3 mg/kg s.c., FIG. 7. The procedure:
(§8) A transgenic mouse model of ALS, SOD1, was used to determine the effects of the combined treatment of a drug used in the treatment of ALS, olesoxime, with THC.
(§9) mSOD1-transgenic (G93A) and wild-type mice were subjected to genotyping to identify the presence of mutant SOD-1. These mice were used for chronic treatment (from 10 weeks of age up to the age of 21 weeks) with test article or vehicle.
as §3
(§10) The treatment groups were as follows: THC-BDS (10 mg/kg; i.p.); CBD-BDS (10 mg/kg; i.p); olesoxime (3 mg/kg; s.c.); a combination of THC-BDS and olesoxime; and vehicle. A group of wild-type animals were also treated with vehicle.
(§11) Animals were recorded for neurological decline by testing rotarod performance during the whole treatment period. Animals were recorded for neurological decline (using a previously published ALS-related neurological scale; de Munck et al., 2013).
(§12) Data were assessed using one-way (immunostaining data) or two-way (rotarod data) ANOVA followed by an appropriate post-hoc test (Student Newman-Keuls for immunostaining data, and Bonferroni for behavioural data) significance was reported at p≤0.05. Data shown in the figures represent “p<0.01, ***p<0.001

Experiment [8] deals with mSOD1-transgenic (G93A) mice. Briefly: Nissl-stained motor neurons in ventral horn of spinal cord in SOD-1 transgenic mice. The format is in vivo, mouse. The note with it: SOD-1 mutant male mice vs vehicle-treated mutant mice; BDS 10 mg/kg i.p., olesoxime 3 mg/kg s.c., 10 to 21 weeks of age, FIG. 9. The procedure: as §8, §9, §3, §10, §5, §12
The number of motor neurons in the ventral horn of the spinal cord was quantified using Nissl staining.

Experiment [9] deals with mSOD1-transgenic (G93A) mice. Briefly: Neurological score in SOD-1 transgenic mice. In kind it is in vivo, mouse. The note with it: SOD-1 mutant male mice, treated from 10 to 21 weeks of age; BDS 10 mg/kg i.p., olesoxime 3 mg/kg s.c., FIG. 8. The procedure: as §8, §9, §3, §10, §11, §12
Another experiment concerns patients with ALS. Conditions: 27 patients with ALS, 5 mg of THC twice daily; cited from earlier work.
In experiment [10] the test system is TDP-43 transgenic mice. Briefly: Limb clasping in TDP-43 transgenic mice. In kind it is in vivo, mouse. The note with it: TDP-43 transgenic male mice, 10 mg/kg/day i.p., FIG. 5. The procedure: as §1, §2, §3, §4, §7, §6

Regarding `CCCCCc1cc(O)c2c(c1)OC(C)(C)c1ccc(C)cc1-2` [CBN, cannabinol, reference compound], the “neuroprotection in an experimental model of ALS” value in experiment [1] is listed as “neuroprotective”.
On to `C=C(C)[C@@H]1CCC(C)=C[C@H]1c1c(O)cc(CCC)cc1O` [CBDV, Cannabidivarin], for which, in the experiment with TDP-43 transgenic mice [2], the “loss of Nissl-stained motor neurons in the spinal cord” value is “almost completely recovered”. Also, in the experiment with TDP-43 transgenic mice [3], the “ratio between cell body area and process length (GFAP-labelled astrocytes)” value is listed as “reduced”; the “total immunoreactivity for GFAP” value is given as “reduced”. The “marked weight loss (weight gain monitoring)” value in the experiment on TDP-43 transgenic mice [4] is “reduce”. Besides, the “lba-1 immunostaining changes (cell bodies, cell processes, ratio), all parameters” value in the experiment with TDP-43 transgenic mice [5] was “reversed the changes”. In the experiment with TDP-43 transgenic mice [6] (TDP-43 mice at 12 weeks of age), the “motor performance on rotarod compared to wild type” value is on record as “significantly impaired”.
`Nc1nc2ccc(OC(F)(F)F)cc2s1` [riluzole]: the “onset of ventilator-dependence or tracheostomy” value in the experiment with ALS patients is on record as “delays”.
In the case of `CC(C)CCC[C@@H](C)[C@H]1CC[C@H]2[C@@H]3CCC4=CC(=NO)CC[C@]4(C)[C@H]3CC[C@]12C` [olesoxime], the “rotarod performance (time spent on the rod)” value in [7] is recorded as “able to attenuate the effect”. The “number of Nissl-stained motor neurons in the ventral horn of the spinal cord” value in experiment [8] is recorded as “statistically significant”. For the same molecule, the “elevated Neurological Score (neurological decline)” value in [9] was “non-significant trends towards a reduced score”.
On to `CCCCCc1cc(O)c2c(c1)OC(C)(C)[C@@H]1CCC(C)=C[C@@H]21` [dronabinol], for which, in the experiment with patients with ALS, the “effect on the cramps associated with ALS” value is listed as “failed to have a significant effect”.
As to `C=C(C)[C@@H]1CCC(C)=C[C@H]1c1c(O)cc(CCCCC)c(C(=O)O)c1O` [CBDA, Cannabidiolic acid], the “loss of Nissl-stained motor neurons in the spinal cord” value with TDP-43 transgenic mice [2] is “almost completely recovered”. In the experiment with TDP-43 transgenic mice [3], the “ratio between cell body area and process length (GFAP-labelled astrocytes)” value is on record as “reduced”; the “total immunoreactivity for GFAP” value was “reduced”. Besides, the “marked weight loss (weight gain monitoring)” value in the experiment with TDP-43 transgenic mice [4] is reported as “prevent”. Moreover, the “increase in limb clasping” value in the experiment with TDP-43 transgenic mice [10] was “strongly and significantly attenuated”. Further, in the experiment with TDP-43 transgenic mice [5], the “lba-1 immunostaining changes (cell bodies, cell processes, ratio), all parameters” value is recorded as “reversed the changes”. Further, in the experiment with TDP-43 transgenic mice [6] (TDP-43 mice at 12 weeks of age, vs vehicle), the “performance on the rotarod compared to vehicle” value is “significantly superior performance”. For the same molecule, the “motor performance on rotarod compared to wild type” value in the experiment on TDP-43 transgenic mice [6] (TDP-43 mice at 12 weeks of age) is listed as “significantly impaired”. Moreover, the “rotarod performance (latency to fall) during disease progression” value in the experiment on TDP-43 transgenic mice [6] (TDP-43 transgenic male mice, even at advanced stages of the disease, FIG. 4) is given as “attenuated the rotarod worsening”.
On to `CCCCCc1cc(O)c2c(c1)OC(C)(C)[C@@H]1CCC(C)=C[C@@H]21` [THC, Tetrahydrocannabinol], for which, in [1], the “neuroprotection in an experimental model of ALS” value was “neuroprotective”.
